According to paper PMC8476755 (Frontiers in Chemistry, 2021):
Read-outs that look alike come from different tables or passages of the source.

Target: T1, GAT3 L314Q (Homo sapiens, UniProt P48066, L314Q)
T1 construct: expressed in transfected cells; host or cells: tsA201 (transformed HEK293), transient
T1 sequence (P48066 1-632 L314Q): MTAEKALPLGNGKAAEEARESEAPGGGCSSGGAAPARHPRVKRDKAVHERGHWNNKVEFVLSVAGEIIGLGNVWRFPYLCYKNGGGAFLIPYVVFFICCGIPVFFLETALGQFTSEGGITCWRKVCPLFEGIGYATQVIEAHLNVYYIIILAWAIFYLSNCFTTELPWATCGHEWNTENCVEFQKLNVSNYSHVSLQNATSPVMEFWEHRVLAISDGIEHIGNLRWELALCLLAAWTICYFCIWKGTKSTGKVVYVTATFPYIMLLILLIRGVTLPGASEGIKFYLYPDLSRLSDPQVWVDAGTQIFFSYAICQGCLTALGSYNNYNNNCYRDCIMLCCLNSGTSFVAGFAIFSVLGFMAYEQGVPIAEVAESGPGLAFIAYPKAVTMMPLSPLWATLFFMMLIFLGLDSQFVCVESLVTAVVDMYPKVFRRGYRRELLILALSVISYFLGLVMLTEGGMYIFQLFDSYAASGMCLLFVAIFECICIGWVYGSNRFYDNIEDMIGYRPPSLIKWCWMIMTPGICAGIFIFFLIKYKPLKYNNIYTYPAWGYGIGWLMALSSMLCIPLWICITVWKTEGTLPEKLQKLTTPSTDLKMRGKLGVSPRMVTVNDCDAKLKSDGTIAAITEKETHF
Assay: [3H]GABA uptake assay, transient expression in tsA201 cells
Format: cell-based
Settings: for Increase in inhibitory activity relative to wt: GAT3 L314Q vs GAT3 wt; for IC50: GAT3 L314Q, tsA201 cells
Description: According to the docking and MD results, the sidechains of Q299 and E52 were identified to form crucial interactions with the protonated nitrogen of both compounds. The residue Q299 in human BGT1 corresponds to leucine in all other GATs (human, rat, mouse), while E52 corresponds to tyrosine in GAT1 (human, rat, mouse) but is conserved among GAT2, GAT3 and BGT1 (human, rat, mouse) (Figure 6A) ([Kickinger et al., 2019]). Thus, we engineered the corresponding mutants Q299L and E52Y in human BGT1 and predicted that the introduction of these mutations would lead to decreased activity of both bicyclo-GABA and 2 due to the loss of essential hydrogen bond interactions. Furthermore, we wanted to test the double mutant E52Y + Q299L. However, in a previous study this mutant was proven non-functional ([Kickinger et al., 2020]). Instead, we generated the double mutant E52A + Q299L as well as the single mutant E52A. For these mutants we predicted decreased activity. Lastly, the reciprocal mutation to BGT1 Q299L was created in GAT3 (L314Q), ideally expecting a gain-of-function.
FIGURE 6 (A) Pocket alignment of the orthosteric site of the four GAT subtypes colored according to the default ClustalX color scheme ([Larkin et al., 2007]). The pocket was defined as all corresponding GAT residues (15 in total) that are within a distance of 4.5 Å of the co-crystallized ligand leucine in the homologous LeuT crystal structure (PDB ID 2A65) ([Yamashita et al., 2005]) according to the alignment by Kickinger et al. ([Kickinger et al., 2019]). The mutated residues in BGT1 and the corresponding residues in GAT1-3 are indicated by a red box. The numbering of all residues within the orthosteric pocket can be found in the Supplementary Table S1.
The tsA201 cell line (a transformed HEK293 cell line), the Flp-In CHO cell lines stably expressing human (h) GATs and the HEK293 cell line stably expressing human α1β2γ2 GABAA receptors have been described previously and were cultured accordingly ([Al-Khawaja et al., 2014]; [Falk-Petersen et al., 2020]). The tsA201 cell line used for transient expression of hGATs was transfected with DNA constructs (8 μg per 10 cm plate) using 40 μL PolyFect transfection reagent according to the manufacturer’s protocol (Qiagen). All DNA constructs used have been described previously: wt hBGT1, wt GAT3 ([Kvist et al., 2009]), BGT1 Q299, GAT3 L314Q ([Jørgensen et al., 2017]), hBGT E52Y, BGT1 E52A and BGT1 E52A + Q299L ([Kickinger et al., 2020]).
Briefly, cells were seeded in white 96-well plates (White Opaque Tissue Culture (TC) plated 96-well Microplate) pre-coated with PDL. Medium was removed on the following day and cells washed with 100 µL/well assay buffer (HBSS supplemented with 20 mM HEPES, 1 mM CaCl2 and 1 mM MgCl2, pH 7.4). […] The cells were washed 3 times with 100 µL/well ice-cold assay buffer, 150 µL/well MicroScint™20 was subsequently added before the plate was shaken for at least 1 h. The plate was counted in a Packard TopCounter microplate scintillation counter (PerkinElmer) for 3 min per well. Typical counts per minute for the different GATs were in the range of: wt hBGT1 (100–4,000), BGT1 Q299 (100–1,000), hBGT E52Y (150–500), BGT1 E52A (150–8,000), BGT1 E52A + Q299L (150–500), wt GAT3 (200–8,000), GAT3 L314Q (100–1,500), wt GAT1 (100–10,000) and wt GAT2 (150–7,500). […] Data presented is the pooled data of at least three independent experiments with three technical replicates if not stated otherwise in figure legends. Concentration–response curves were fitted by non-linear regression to the sigmoidal concentration-response model with GraphPad Prism (version 9.0.0, GraphPad Software, San Diego, CA, United States) as described ([Lie et al., 2020]).

| SMILES | Increase in inhibitory activity relative to wt | IC50 (read-out: IC50) | IC50 (read-out: pIC50 ± S.E.M. (converted)) |
| --- | --- | --- | --- |
| N[C@@]12CC[C@H](C(=O)O)[C@@H]1C2 [bicyclo-GABA, (1S,2S,5R)-5-aminobicyclo[3.1.0]hexane-2-carboxylic acid] | 38 times | 16 µM | 12.6 µM |
| CN[C@@]12CC[C@H](C(=O)O)[C@@H]1C2 [compound 2] | not increased | 291 µM |  |
